The text below walks through data of patent US8946203B2, “Benzodioxane inhibitors of leukotriene production” (Boehringer Ingelheim International GmbH, priority 2012, dated 2015).

Structures are written as SMILES.

For test [1], the target named is T1, human LTA4 hydrolase (Homo sapiens, UniProt P09960).
T1 sequence (P09960 1-611): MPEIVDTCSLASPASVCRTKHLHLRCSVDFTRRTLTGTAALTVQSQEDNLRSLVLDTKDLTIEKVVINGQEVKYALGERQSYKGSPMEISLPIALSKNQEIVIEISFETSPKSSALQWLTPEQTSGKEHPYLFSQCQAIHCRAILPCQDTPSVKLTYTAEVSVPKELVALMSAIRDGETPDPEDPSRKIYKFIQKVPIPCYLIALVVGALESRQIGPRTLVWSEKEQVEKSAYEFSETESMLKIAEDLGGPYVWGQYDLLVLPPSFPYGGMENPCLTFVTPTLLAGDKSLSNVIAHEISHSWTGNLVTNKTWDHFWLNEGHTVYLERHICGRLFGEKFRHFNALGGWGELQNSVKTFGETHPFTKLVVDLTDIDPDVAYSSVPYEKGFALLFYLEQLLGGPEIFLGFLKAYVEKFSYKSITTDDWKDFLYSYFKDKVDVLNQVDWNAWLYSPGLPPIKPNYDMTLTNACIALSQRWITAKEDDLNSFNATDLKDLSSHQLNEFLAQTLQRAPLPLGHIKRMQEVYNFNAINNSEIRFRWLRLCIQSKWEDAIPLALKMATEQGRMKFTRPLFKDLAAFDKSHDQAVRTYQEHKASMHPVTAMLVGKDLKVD
The test can be described thus: LTA4H Enzyme assay (cleavage of Arg-AMC, fluorescence). The format is biochemical. The conditions noted are these: LTA4H Enzyme 1 nM, Arg-AMC substrate 50 μM, room temperature 1 h, fluorescence; read-out: IC50 values of LTA4H Enzyme assay. In a few lines:
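Peptidase activity of human LTA4H (1 nM final) on Arg-AMC (50 μM final), with compound, 1 h at room temperature. Buffer: 50 mM Tris-HCl pH 7.5, 100 mM KCl, 0.5% BSA.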

The test system of test [2] is synthesis of LTB4 in human whole blood. In words: human whole blood (HWB) assay, LTB4 production inhibition after calcimycin stimulation. The format is cell-based. The conditions noted are these: heparinized human whole blood, calcimycin 20 μM, plasma LTB4 by HTRF. In a few lines:
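Heparinized human whole blood preincubated with compound 15 min at 37 °C, then stimulated with 20 μM (final) calcimycin for 30 min at 37 °C. Plasma LTB4 measured by antibody-based HTRF; IC50 reported.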
A general note: Time-resolved FRET reads energy transfer from a long-lived donor to a nearby acceptor.

A word on the IC50: it is the point on the concentration scale where inhibition reaches its midpoint. With `O=C(O)C1CCN(Cc2ccc([C@H]3COc4ccccc4O3)cc2)CC1` [Example 200, (S)-1-[4-(2,3-dihydro-benzo[1,4]dioxin-2-yl)-benzyl]-piperidine-4-carboxylic acid], the IC50 was found to be 0.12 nM in test [1] and 83 nM in test [2].

In the case of `OCC1CCCN(Cc2ccc([C@H]3COc4ccccc4O3)cc2)C1` (stereo partly drawn) [Example 69, (1-{4-[(2S)-2,3-dihydro-1,4-benzodioxin-2-yl]benzyl}piperidin-3-yl)methanol], the half-inhibitory concentration (IC50) in test [1] worked out at 0.6 nM; in test [2] it was 165 nM.

With `CC(=O)N1CC2CN(Cc3ccc([C@H]4COc5cccnc5O4)cc3)CC2C1` (stereo partly drawn) [Example 270, 1-{5-[(S)-4-(2,3-Dihydro-[1,4]dioxino[2,3-b]pyridin-3-yl)-benzyl]-hexahydro-pyrrolo[3,4-c]pyrrol-2-yl}-ethanone], the IC50 in test [1] came out at 0.14 nM; in test [2], 35 nM.

As to `CS(=O)(=O)NC[C@@H]1[C@H]2CN(Cc3ccc([C@H]4COc5cccnc5O4)cc3)C[C@@H]12` [Example 263, N-{(1α,5α,6α)-3-[(S)-4-(2,3-Dihydro-[1,4]dioxino[2,3-b]pyridin-3-yl)-benzyl]-3-aza-bicyclo[3.1.0]hex-6-ylmethyl}-methanesulfonamide], the IC50 was 0.49 nM in test [1] and 130 nM in test [2].

For `CC(C)(O)CNC(=O)[C@H]1[C@@H]2CN(Cc3ccc([C@H]4COc5cccnc5O4)cc3)C[C@@H]21` [Example 251, [(1α,5α,6α)-3-[(S)-4-(2,3-Dihydro-[1,4]dioxino[2,3-b]pyridin-3-yl)-benzyl]-3-aza-bicyclo[3.1.0]hexane-6-carboxylic acid (2-hydroxy-2-methyl-propyl)]-amide], the values for the IC50 in test [1] and in test [2] were 0.16 nM and 63 nM, respectively.

With `CC1CCCCN1Cc1ccc([C@H]2COc3ccccc3O2)cc1` (stereo partly drawn) [Example 68, 1-{4-[(2S)-2,3-dihydro-1,4-benzodioxin-2-yl]benzyl}-2-methylpiperidine], the results for the concentration for half-maximal inhibition (IC50) in test [1] and in test [2] were 0.1 nM and 81 nM, respectively.

Turning to `CC(=O)N1CC2CCC(C1)N2Cc1ccc([C@H]2COc3cccnc3O2)cc1` [Example 271, 1-{8-[(S)-4-(2,3-Dihydro-[1,4]dioxino[2,3-b]pyridin-3-yl)-benzyl]-3,8-diaza-bicyclo[3.2.1]oct-3-yl}-ethanone], the figures for the half-maximal inhibitory concentration (IC50) in test [1] and in test [2] were 0.65 nM and 110 nM, respectively.

For `CC(C)(O)C(=O)NCC1CCN(Cc2ccc([C@H]3COc4cccnc4O3)cc2)CC1` [Example 262, N-{1-[(S)-4-(2,3-Dihydro-[1,4]dioxino[2,3-b]pyridin-3-yl)-benzyl]-piperidin-4-ylmethyl}-2-hydroxy-2-methyl-propionamide], the figures for the half-maximal inhibitory concentration (IC50) in test [1] and in test [2] were 0.51 nM and 170 nM, respectively.

Regarding `CC(=O)N1CCN(Cc2ccc([C@H]3COc4cccnc4O3)cc2)CC1` [Example 185, 1-(4-{4-[(3S)-2,3-dihydro[1,4]dioxin[2,3-b]pyridin-3-yl]benzyl}piperazin-1-yl)ethanone], the half-inhibitory concentration (IC50) amounted to 0.59 nM in test [1] and 92 nM in test [2].

`O=C(CO)N1C[C@@H]2CC[C@H]1CN2Cc1ccc([C@H]2COc3cccnc3O2)cc1` [Example 281, 1-{(1S,4S)-5-[(S)-4-(2,3-Dihydro-[1,4]dioxino[2,3-b]pyridin-3-yl)-benzyl]-2,5-diaza-bicyclo[2.2.2]oct-2-yl}-2-hydroxy-ethanone]: the values for the IC50 in test [1] and in test [2] were 0.17 nM and 37 nM, respectively.

Turning to `c1cnc2c(c1)OC[C@H](c1ccc(CN3CCOCC3)cc1)O2` [Example 204, (S)-3-(4-Morpholin-4-ylmethyl-phenyl)-2,3-dihydro-[1,4]dioxino[2,3-b]pyridine], the figures for the IC50 in test [1] and in test [2] were 0.15 nM and 95 nM, respectively.

For `O=C(C1CCN(Cc2ccc([C@H]3COc4cccnc4O3)cc2)CC1)N1CC(O)C1` [Example 286, {1-[(S)-4-(2,3-Dihydro-[1,4]dioxino[2,3-b]pyridin-3-yl)-benzyl]-piperidin-4-yl}-(3-hydroxy-azetidin-1-yl)-methanone], the IC50 was 0.35 nM in test [1] and 190 nM in test [2].

With `NC(=O)N1C[C@@H]2C[C@H]1CN2Cc1ccc([C@H]2COc3cccnc3O2)cc1` [Example 268, (1S,4S)-5-[(S)-4-(2,3-Dihydro-[1,4]dioxino[2,3-b]pyridin-3-yl)-benzyl]-2,5-diaza-bicyclo[2.2.1]heptane-2-carboxylic acid amide], the values for the IC50 in test [1] and in test [2] were 0.11 nM and 66 nM, respectively.

As to `NC(=O)c1cn2c(n1)CN(Cc1ccc([C@H]3COc4cccnc4O3)cc1)CC2` [Example 243, 7-[(S)-4-(2,3-dihydro-[1,4]dioxino[2,3-b]pyridin-3-yl)-benzyl]-5,6,7,8-tetrahydro-imidazo[1,2-a]pyrazine-2-carboxylic acid amide], the IC50 in test [1] stood at 0.42 nM; in test [2], 99 nM.

Turning to `CC(=O)N1C[C@@H]2C[C@H]1CN2Cc1ccc([C@H]2COc3cccnc3O2)cc1` [Example 292, 1-{(1S,4S)-5-[(S)-4-(2,3-Dihydro-[1,4]dioxino[2,3-b]pyridin-3-yl)-benzyl]-2,5-diaza-bicyclo[2.2.1]hept-2-yl}-ethanone], the results for the IC50 in test [1] and in test [2] were 0.16 nM and 24 nM, respectively.

Take `CS(=O)(=O)NC1CCN(Cc2ccc([C@H]3COc4cccnc4O3)cc2)CC1` [Example 190, N-(1-{4-[(3S)-2,3-dihydro[1,4]dioxino[2,3-b]pyridin-3-yl]benzyl}piperidin-4-yl)methanesulfonamide]: the IC50 in test [1] is 0.09 nM; in test [2] it was 26 nM.

On to `CCCCN(Cc1ccc(C(=O)O)cc1)Cc1ccc([C@H]2COc3ccccc3O2)cc1` [Example 237, 4-[(butyl{4-[(2S)-2,3-dihydro-1,4-benzodioxin-2-yl]benzyl}amino)methyl]benzoic acid], for which the IC50 in test [1] turned out to be 0.81 nM; in test [2], 95 nM.

As for `c1ccc2c(c1)OCC(c1ccc(CN3CCCC3)cc1)O2` (racemic) [Example 1, 1-[4-(2,3-dihydro-1,4-benzodioxin-2-yl)benzyl]pyrrolidine], the results for the IC50 in test [1] and in test [2] were 0.38 nM and 179 nM, respectively.

For the molecule `N#Cc1cnc2n1CCN(Cc1ccc([C@H]3COc4cccnc4O3)cc1)C2` [Example 249, 7-[(S)-4-(2,3-Dihydro-[1,4]dioxino[2,3-b]pyridin-3-yl)-benzyl]-5,6,7,8-tetrahydro-imidazo[1,2-a]pyrazine-3-carbonitrile], the IC50 in test [1] was found to be 0.25 nM; in test [2] it was 58 nM.

For the molecule `O=C(O)C1CCCN(Cc2ccc([C@H]3COc4ccccc4O3)cc2)CC1` (stereo partly drawn) [Example 266, 1-[(S)-4-(2,3-Dihydro-benzo[1,4]dioxin-2-yl)-benzyl]-azepane-4-carboxylic acid], the IC50 in test [1] is 0.22 nM; in test [2], 98 nM.
